# Measured values from patent US20210293825A1, “METHODS FOR PRECISION THERAPEUTIC TARGETING OF HUMAN CANCER CELL MOTILITY AND KITS THEREOF” (UNITED STATES GOVERNMENT AS REPRESENTED BY THE DEPARTMENT …, priority 2018, published 2021).
# Columns and labels:
# [1] = target: T1, HSP90β/CDC37 heterocomplexes (Homo sapiens, UniProt P08238+Q16543); assay: DARTS assay with HSP90β and CDC37 combined; type: binding
# T1 construct: made in house; host or cells: E. coli (Rosetta BL-21 for HSP90B, BL-21 DE-3 for CDC37)
# Method: Equimolar amounts of HSP90β and CDC37 protein were pre-incubated with KBU2046, and resultant thermolysin reaction products were detected by silver stain following SDS-PAGE.
# DARTS provides a sensitive measure of ligand-induced changes in protein structure and dynamics by measuring the ability of a ligand to protect its target from protease digestion (Lomenick, B. et al., Proc Natl Acad Sci USA 106, 21984-9 (2009)). […] The intensity of the CDC37 band increased, that of the HSP90β degradation product decreased, and both effects were statistically significant, concentration-dependent and were evident at 10 nM. […] Further, these findings also indicate that KBU2046 is not acting as a classical HSP90 inhibitor.
# Biophysical and Biochemical Binding Assays. Fluorescent thermal shift (Krishna, S. N. et al., PLoS One 8, e81504 (2013)), isothermal titration calorimetry (Chavez, J. D. et al., Mol Cell Proteomics 12, 1451-67 (2013)), and biolayer interferometry assays (Makowska-Grzyska, M. et al., Biochemistry 51, 6148-63 (2012)), were performed using MEK4EE (37-399, S257E, T261E) cloned into pMCSG7 and KRX Competent E. coli cells (Promega Inc.) and full-length HSP90B and CDC37 vectors and Rosetta BL-21 and BL-21 DE-3 competent E. coli cells, respectively. […]
# [2] = system: protein phosphorylation in PC3-M and PC3 cells; assay: KinomeView phospho-motif antibody screen; type: cell-based, human; conditions: 10 μM, 3 days, ±TGFβ
# From the text: Seeking to identify KBU2046's biological target(s), alternative methods were pursued. The KinomeView® panel of antibodies (Cell Signaling Technology, Inc.) detect established protein phosphorylation motifs, and were used to probe for KBU2046-induced changes in protein phosphorylation (FIG. 4a and FIG. 17). Phosphoprotein changes that met the following criteria were prioritized: were induced in cells in vitro as well as in tumors of treated mice (from FIG. 2a), that counteracted transforming growth factor β (TGFβ)-induced effects, and that were reproducible. TGFβ is ubiquitous in vivo, is known to increase PCa cell invasion (Huang, X. et al., Cancer Research 65, 3470-8 (2005)), and KBU2046's anti-invasion efficacy remains in spite of TGFβ-stimulated increases in cell invasion (FIG. 18). Genistein was evaluated under identical treatment conditions for comparison. […] In tumors of treated animals KBU2046 had this same effect on this 83 kDa protein band (green arrow in FIG. 17a). The high molecular selectivity of KBU2046 was further supported by its failure to inhibit over 400 different protein kinases and 20 phosphatases examined, in three different in vitro assay systems (see, Example 1).
# Phospho-proteomic Analysis. The Kinoview™ and PhosphoScan™ assays were performed by Cell Signaling Technology Inc. […]
# [3] = system: human prostate, breast, colon and lung cancer cells; assay: Single cell migration (motility) assay; type: cell-based; conditions: 10 μM, 3 days
# From the text: FIG. 1a is a schematic flow of probe synthesis and development strategy. […] Values are mean±SEM of a single experiment in replicates of N=4, with similar findings in multiple separate experiments (also N=4). […] Values are mean±SEM of a single experiment in replicates of N=24, with similar findings in a separate experiment (also N=24). *Denotes Student's t test P value <0.05, compared to controls. […] Values are mean±SEM from N>2 separate experiments, each in replicates of N=3. […] Values are the mean±SD number of total, CFU-GM, CFU-GEMM or BFU-E colonies at 14 days after treatment with KBU2046, from a single experiment in replicates of N=2. […] Values are the mean±SD of a single experiment, with similar results seen in a separate experiment, both in replicates of N=2.
# Cell Migration Assays. Single cell motility assays were conducted by adding 10^4 cells to 35 mm tissue culture dishes (BD Falcon) coated with collagen I (BD Biosciences), incubating at 37° C. in 5% CO2, performing time-lapse imaging using a Biostation (Nikon Instruments), tracking the path of N≥35 cells using ImageJ software and the Manual Tracker plug-in, and using Chemotaxis and Migration Tool plug-in for data analysis.
# [4] = system: 20 phosphatases; assay: PhosphataseProfiler assay platform (Millipore); type: biochemical; conditions: competition with substrate protein
# From the text: Kinase assay system #3. KinaseProfiler™ and PhosphataseProfiler™ assay platforms (Millipore). This platform is radiometric-based (considered gold standard). It measures competition with respect to ATP for kinases and substrate protein for phosphatases. Most proteins were expressed via an insect-based system, and it evaluates a panel of 284 kinases and 20 phosphatases. […] Important negative findings include: MKK4, MKK6, p38 MAPK, MAPKAPK2, RAF1, ERK, MEK1, JNK1, 2 and 3, and numerous other MAPK cascade-associated kinases.
# T1 sequence (P08238 whole entry): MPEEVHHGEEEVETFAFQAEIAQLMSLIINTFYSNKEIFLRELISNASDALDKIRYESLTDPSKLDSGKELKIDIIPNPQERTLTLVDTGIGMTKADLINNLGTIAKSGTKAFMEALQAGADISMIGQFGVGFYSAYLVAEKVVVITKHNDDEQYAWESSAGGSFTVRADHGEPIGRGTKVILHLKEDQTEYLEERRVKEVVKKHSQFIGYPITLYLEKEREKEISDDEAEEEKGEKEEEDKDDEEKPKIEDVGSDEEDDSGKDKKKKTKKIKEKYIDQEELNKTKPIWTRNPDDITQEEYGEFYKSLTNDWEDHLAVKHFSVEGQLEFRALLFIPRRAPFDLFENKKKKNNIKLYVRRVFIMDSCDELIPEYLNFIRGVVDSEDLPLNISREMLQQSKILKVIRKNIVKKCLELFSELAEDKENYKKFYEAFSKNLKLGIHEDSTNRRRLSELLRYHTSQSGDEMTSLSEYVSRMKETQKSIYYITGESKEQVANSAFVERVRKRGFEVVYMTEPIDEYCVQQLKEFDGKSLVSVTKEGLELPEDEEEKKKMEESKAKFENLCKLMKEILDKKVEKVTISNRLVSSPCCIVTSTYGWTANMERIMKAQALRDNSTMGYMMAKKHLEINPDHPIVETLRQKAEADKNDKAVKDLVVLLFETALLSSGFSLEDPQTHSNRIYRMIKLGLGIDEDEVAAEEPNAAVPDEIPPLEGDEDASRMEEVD
# T1 sequence (Q16543 whole entry): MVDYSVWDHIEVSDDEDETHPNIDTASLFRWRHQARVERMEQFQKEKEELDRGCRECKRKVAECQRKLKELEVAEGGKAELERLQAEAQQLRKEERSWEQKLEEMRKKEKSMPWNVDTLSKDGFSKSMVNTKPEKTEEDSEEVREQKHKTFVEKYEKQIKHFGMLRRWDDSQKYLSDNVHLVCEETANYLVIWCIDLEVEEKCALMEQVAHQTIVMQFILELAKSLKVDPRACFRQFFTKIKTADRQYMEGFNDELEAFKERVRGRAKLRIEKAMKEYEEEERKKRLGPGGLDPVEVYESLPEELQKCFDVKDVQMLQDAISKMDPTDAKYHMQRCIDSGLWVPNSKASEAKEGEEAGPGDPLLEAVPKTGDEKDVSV
structure (smiles),measurement,setting,value
"O=C1c2ccccc2OCC1c1ccc(F)cc1 (racemic) [KBU2046, (±)-3(4-fluorophenyl)chroman-4-one]",concentration at which effects on CDC37 and HSP90β bands were evident,[1]; concentration-dependent,10 nM
same,protection from thermolysin digestion,[1]; equimolar HSP90β and CDC37,protected both proteins from digestion
same,changes in protein phosphorylation,[2],induced a single change that met the pre-specified criteria
same,inhibition of cell migration,[3],inhibited the migration
same,inhibition of phosphatase activity,[4],No evidence supports inhibition of phosphatase activity
